The record followed here is US11331369B2, “Endoparasitic depsipeptides” (Zoetis Services LLC, priority 2017, dated 2022).

The structures appear in SMILES notation.

This experiment relates to microfilariae of Dirofilaria immitis. Put plainly: Dirofilaria immitis, Microfilaria (DiMF) In vitro Assay. Type of experiment: cell-based. The following applies: 72 h, read-out: DiMF Minimum Effective Dose (MED), approximately 72 hours incubation, microfilariae assessed for survival or paralysis.

As to `Cc1nn(Cc2ccc(C[C@H]3OC(=O)[C@H](CC(C)C)N(C)C(=O)[C@@H](C)OC(=O)[C@H](CC(C)C)N(C)C(=O)[C@@H](Cc4ccc(Cn5cc(OC(C)C)c(C)n5)cc4)OC(=O)[C@H](CC(C)C)N(C)C(=O)[C@@H](C)OC(=O)[C@H](CC(C)C)N(C)C3=O)cc2)cc1OC(C)C` [Example 1b-199, (3S,6R,9S,12R,15S,18R,21S,24R)-3,9,15,21-tetraisobutyl-6,18-bis[[4-[(4-isopropoxy-3-methyl-pyrazol-1-yl)methyl]phenyl]methyl]-4,10,12,16,22,24-hexamethyl-1,7,13,19-tetraoxa-4,10,16,22-tetrazacyclotetracosane-2,5,8,11,14,17,20,23-octaone], the minimal effective concentration lay within 0.01 to 0.1 µM.
The figure for `Cc1cnn(Cc2ccc(C[C@H]3OC(=O)[C@H](CC(C)C)N(C)C(=O)[C@@H](C)OC(=O)[C@H](CC(C)C)N(C)C(=O)[C@@H](Cc4ccc(Cn5cc(-c6ccc(F)cc6)cn5)cc4)OC(=O)[C@H](CC(C)C)N(C)C(=O)[C@@H](C)OC(=O)[C@H](CC(C)C)N(C)C3=O)cc2)c1` [Example 1a-22, (3S,6R,9S,12R,15S,18R,21S,24R)-6-(4-((4-(4-fluorophenyl)-1H-pyrazol-1-yl)methyl)benzyl)-3,9,15,21-tetraisobutyl-4,10,12,16,22,24-hexamethyl-18-(4-((4-methyl-1H-pyrazol-1-yl)methyl)benzyl)-1,7,13,19-tetraoxa-4,10,16,22-tetraazacyclotetracosan-2,5,8,11,14,17,20,23-octaone] is 0.01 to 0.1 µM; for `CC(C)C[C@H]1C(=O)O[C@H](Cc2ccc(Cn3cc(S(=O)(=O)N4CCCCC4)cn3)cc2)C(=O)N(C)[C@@H](CC(C)C)C(=O)O[C@H](C)C(=O)N(C)[C@@H](CC(C)C)C(=O)O[C@H](Cc2ccccc2)C(=O)N(C)[C@@H](CC(C)C)C(=O)O[C@H](C)C(=O)N1C` [Example 2-21, (3S,6R,9S,12R,15S,18R,21S,24R)-6-benzyl-3,9,15,21-tetraisobutyl-4,10,12,16,22,24-hexamethyl-18-(4-((4-(piperidin-1-ylsulfonyl)-1H-pyrazol-1-yl)methyl)benzyl)-1,7,13,19-tetraoxa-4,10,16,22-tetraazacyclotetracosan-2,5,8,11,14,17,20,23-octaone] it is 0.01 to 0.1 µM.
The same measure for `CC(C)C[C@H]1C(=O)O[C@H](Cc2ccc(Cn3nccc3N)cc2)C(=O)N(C)[C@@H](CC(C)C)C(=O)O[C@H](C)C(=O)N(C)[C@@H](CC(C)C)C(=O)O[C@H](Cc2ccc(Cn3nccc3N)cc2)C(=O)N(C)[C@@H](CC(C)C)C(=O)O[C@H](C)C(=O)N1C` [Example 1b-144, (3S,6R,9S,12R,15S,18R,21S,24R)-6,18-bis(4-((5-amino-1H-pyrazol-1-yl)methyl)benzyl)-3,9,15,21-tetraisobutyl-4,10,12,16,22,24-hexamethyl-1,7,13,19-tetraoxa-4,10,16,22-tetraazacyclotetracosan-2,5,8,11,14,17,20,23-octaone]: 0.01 to 0.1 µM; for `CC(C)C[C@H]1C(=O)O[C@H](Cc2ccc(Cn3ncc4cccnc43)cc2)C(=O)N(C)[C@@H](CC(C)C)C(=O)O[C@H](C)C(=O)N(C)[C@@H](CC(C)C)C(=O)O[C@H](Cc2ccc(Cn3ncc4cccnc43)cc2)C(=O)N(C)[C@@H](CC(C)C)C(=O)O[C@H](C)C(=O)N1C` [Example 9-49, (3S,6R,9S,12R,15S,18R,21S,24R)-6,18-bis(4-((1H-pyrazolo[3,4-b]pyridin-1-yl)methyl)benzyl)-3,9,15,21-tetraisobutyl-4,10,12,16,22,24-hexamethyl-1,7,13,19-tetraoxa-4,10,16,22-tetraazacyclotetracosan-2,5,8,11,14,17,20,23-octaone]: 0.001 to 0.01 µM; for `CC(C)C[C@H]1C(=O)O[C@H](Cc2cccc(Cn3cc(O)cn3)c2)C(=O)N(C)[C@@H](CC(C)C)C(=O)O[C@H](C)C(=O)N(C)[C@@H](CC(C)C)C(=O)O[C@H](Cc2ccccc2)C(=O)N(C)[C@@H](CC(C)C)C(=O)O[C@H](C)C(=O)N1C` [Example 5-3, (3S,6R,9S,12R,15S,18R,21S,24R)-6-benzyl-18-(3-((4-hydroxy-1H-pyrazol-1-yl)methyl)benzyl)-3,9,15,21-tetraisobutyl-4,10,12,16,22,24-hexamethyl-1,7,13,19-tetraoxa-4,10,16,22-tetraazacyclotetracosan-2,5,8,11,14,17,20,23-octaone]: 0.01 to 0.1 µM.
The figure for `CC(C)C[C@H]1C(=O)O[C@H](Cc2ccc(Cn3cc(CO)c(C(F)(F)F)n3)cc2)C(=O)N(C)[C@@H](CC(C)C)C(=O)O[C@H](C)C(=O)N(C)[C@@H](CC(C)C)C(=O)O[C@H](Cc2ccc(Cn3cc(CO)c(C(F)(F)F)n3)cc2)C(=O)N(C)[C@@H](CC(C)C)C(=O)O[C@H](C)C(=O)N1C` [Example 1b-162, (3S,6R,9S,12R,15S,18R,21S,24R)-6,18-bis(4-((4-(hydroxymethyl)-3-(trifluoromethyl)-1H-pyrazol-1-yl)methyl)benzyl)-3,9,15,21-tetraisobutyl-4,10,12,16,22,24-hexamethyl-1,7,13,19-tetraoxa-4,10,16,22-tetraazacyclotetracosan-2,5,8,11,14,17,20,23-octaone] is 0.01 to 0.1 µM; for `CC(C)C[C@H]1C(=O)O[C@H](Cc2ccc(Cn3cc4c(n3)CCOC4)cc2)C(=O)N(C)[C@@H](CC(C)C)C(=O)O[C@H](C)C(=O)N(C)[C@@H](CC(C)C)C(=O)O[C@H](Cc2ccccc2)C(=O)N(C)[C@@H](CC(C)C)C(=O)O[C@H](C)C(=O)N1C` [Example 10-28, (3S,6R,9S,12R,15S,18R,21S,24R)-6-benzyl-18-(4-((6,7-dihydropyrano[4,3-c]pyrazol-2(4H)-yl)methyl)benzyl)-3,9,15,21-tetraisobutyl-4,10,12,16,22,24-hexamethyl-1,7,13,19-tetraoxa-4,10,16,22-tetraazacyclotetracosan-2,5,8,11,14,17,20,23-octaone] it is 0.01 to 0.1 µM.
For the compound `CC(C)C[C@H]1C(=O)O[C@H](Cc2cccc(Cn3cccn3)c2)C(=O)N(C)[C@@H](CC(C)C)C(=O)O[C@H](C)C(=O)N(C)[C@@H](CC(C)C)C(=O)O[C@H](Cc2cccc(Cn3cccn3)c2)C(=O)N(C)[C@@H](CC(C)C)C(=O)O[C@H](C)C(=O)N1C` [Example 4-1, (3S,6R,9S,12R,15S,18R,21S,24R)-6,18-bis(3-((1H-pyrazol-1-yl)methyl)benzyl)-3,9,15,21-tetraisobutyl-4,10,12,16,22,24-hexamethyl-1,7,13,19-tetraoxa-4,10,16,22-tetraazacyclotetracosan-2,5,8,11,14,17,20,23-octaone], the minimal effective concentration is 0.001 to 0.01 µM.
The figure for `CC(C)C[C@H]1C(=O)O[C@H](Cc2ccc(Cn3cc(C(F)F)cn3)cc2)C(=O)N(C)[C@@H](CC(C)C)C(=O)O[C@H](C)C(=O)N(C)[C@@H](CC(C)C)C(=O)O[C@H](Cc2ccccc2)C(=O)N(C)[C@@H](CC(C)C)C(=O)O[C@H](C)C(=O)N1C` [Example 2-18, (3S,6R,9S,12R,15S,18R,21S,24R)-6-benzyl-18-(4-((4-(difluoromethyl)-1H-pyrazol-1-yl)methyl)benzyl)-3,9,15,21-tetraisobutyl-4,10,12,16,22,24-hexamethyl-1,7,13,19-tetraoxa-4,10,16,22-tetraazacyclotetracosan-2,5,8,11,14,17,20,23-octaone] is 0.001 to 0.01 µM.
The figure for `CCOc1c(C)nn(Cc2ccc(C[C@H]3OC(=O)[C@H](CC(C)C)N(C)C(=O)[C@@H](C)OC(=O)[C@H](CC(C)C)N(C)C(=O)[C@@H](Cc4ccc(Cn5nc(C)c(OCC)c5C)cc4)OC(=O)[C@H](CC(C)C)N(C)C(=O)[C@@H](C)OC(=O)[C@H](CC(C)C)N(C)C3=O)cc2)c1C` [Example 1b-191, (3S,6R,9S,12R,15S,18R,21S,24R)-6,18-bis(4-((4-ethoxy-3,5-dimethyl-1H-pyrazol-1-yl)methyl)benzyl)-3,9,15,21-tetraisobutyl-4,10,12,16,22,24-hexamethyl-1,7,13,19-tetraoxa-4,10,16,22-tetraazacyclotetracosan-2,5,8,11,14,17,20,23-octaone] is 0.01 to 0.1 µM.
The figure for `CCc1nn(Cc2ccc(C[C@H]3OC(=O)[C@H](CC(C)C)N(C)C(=O)[C@@H](C)OC(=O)[C@H](CC(C)C)N(C)C(=O)[C@@H](Cc4ccccc4)OC(=O)[C@H](CC(C)C)N(C)C(=O)[C@@H](C)OC(=O)[C@H](CC(C)C)N(C)C3=O)cc2)c(CC)c1[N+](=O)[O-]` [Example 2-82, (3S,6R,9S,12R,15S,18R,21S,24R)-6-benzyl-18-(4-((3,5-diethyl-4-nitro-1H-pyrazol-1-yl)methyl)benzyl)-3,9,15,21-tetraisobutyl-4,10,12,16,22,24-hexamethyl-1,7,13,19-tetraoxa-4,10,16,22-tetraazacyclotetracosan-2,5,8,11,14,17,20,23-octaone] is 0.01 to 0.1 µM.
With `CC(=O)Nc1c(C)nn(Cc2ccc(C[C@H]3OC(=O)[C@H](CC(C)C)N(C)C(=O)[C@@H](C)OC(=O)[C@H](CC(C)C)N(C)C(=O)[C@@H](Cc4ccccc4)OC(=O)[C@H](CC(C)C)N(C)C(=O)[C@@H](C)OC(=O)[C@H](CC(C)C)N(C)C3=O)cc2)c1C` [Example 2-43, N-(1-(4-(((2R,5S,8R,11S,14R,17S,20R,23S)-14-benzyl-5,11,17,23-tetraisobutyl-4,8,10,16,20,22-hexamethyl-3,6,9,12,15,18,21,24-octaoxo-1,7,13,19-tetraoxa-4,10,16,22-tetraazacyclotetracosan-2-yl)methyl)benzyl)-3,5-dimethyl-1H-pyrazol-4-yl)acetamide], the minimal effective concentration is 0.01 to 0.1 µM.
The same measure for `Cc1nn(Cc2ccc(C[C@H]3OC(=O)[C@H](CC(C)C)N(C)C(=O)[C@@H](C)OC(=O)[C@H](CC(C)C)N(C)C(=O)[C@@H](Cc4ccc(Cn5nc(C)c(OC(C)C)c5C)cc4)OC(=O)[C@H](CC(C)C)N(C)C(=O)[C@@H](C)OC(=O)[C@H](CC(C)C)N(C)C3=O)cc2)c(C)c1OC(C)C` [Example 1b-188, (3S,6R,9S,12R,15S,18R,21S,24R)-3,9,15,21-tetraisobutyl-6,18-bis(4-((4-isopropoxy-3,5-dimethyl-1H-pyrazol-1-yl)methyl)benzyl)-4,10,12,16,22,24-hexamethyl-1,7,13,19-tetraoxa-4,10,16,22-tetraazacyclotetracosan-2,5,8,11,14,17,20,23-octaone]: 0.01 to 0.1 µM.
